{"source": "patent US6531603B1", "about": "“Polymorphic forms of 6-[4-(1-cyclohexyl-1H-tetrazol-5-yl)butoxy]-3,4-dihydro-2(1H)-quinolinone” (priority 2001, dated 2003)", "key": {"[1]": {"test": "stability of the crystalline form", "type": "physicochemical"}, "[2]": {"test": "solid state phase transformation of disturbed sample on heating by DSC", "type": "physicochemical", "settings": "sample disturbed with scratching / stressed, DSC heating from 30° C. to approximately 200° C. at 10° C. per minute, followed by melt at about 160° C. (Form A)", "excerpt": "Characterization of Form A of cilostazol, Form B of cilostazol, and Form C of cilostazol was further completed using DSC thermograms, shown in FIGS. 3, 4, and 5, respectively, with DSC thermograms for combinations of Form A and Form B; Form B and Form C; and Forms A, B, and C are shown in FIGS. 6, 7, and 8 respectively. DSC data were generated using a Mettler-Toledo DSC 821^e (Columbus, Ohio) with a Julabo FT900 intercooler chiller (Julabo Company; Allentown, Pa.). In general, samples were analyzed in a vented, sealed aluminum pan. Because the endothermic peak may vary depending upon the rate of heating and the calibration and precision of the instrument, with the amount of peak variation dependent upon the heating rate used, all thermograms included herein were run under the same, consistent conditions: heating at 10° C. per minute under a nitrogen purge at 40 mL/minute. The resultant sample of Example 1A was disturbed with scratching, which caused the cilostazol sample to undergo a solid state phase transformation at approximately 119° C. followed by an endotherm of melt at approximately 160° C. (Form A) during heating by DSC from 30° C. to approximately 200° C. at 10° C. per minute. When the sample is stressed and reheated (as detailed in Example 2A), the sample undergoes a solid state phase transformation at approximately 147° C. followed by an endotherm of melt at about 160° C. […]"}, "[3]": {"test": "aqueous solubility of cilostazol polymorphic forms", "type": "physicochemical"}, "[4]": {"test": "bioavailability", "type": "in vivo", "settings": "Form A as prepared by the procedures of the '479 patent"}}, "data": [{"compound": "O=C1CCc2cc(OCCCCc3nnnn3C3CCCCC3)ccc2N1", "note": "[Form B, 6-[4-(1-cyclohexyl-1H-tetrazol-5-yl)butoxy]-3,4-dihydro-2(1H)-quinolinone]", "values": [{"measurement": "stability of the polymorphic form", "setting": "[1]", "value": "stable"}, {"measurement": "solid state phase transformation temperature (to Form A)", "setting": "[2]; listed as Example 1A", "value": "approximately 119 °C"}, {"measurement": "solubility relative to Form A", "setting": "[3]; inferred from lower melting point in DSC thermogram (FIG. 8), solubility itself not measured", "value": "more soluble than Form A"}]}, {"compound": "O=C1CCc2cc(OCCCCc3nnnn3C3CCCCC3)ccc2N1", "note": "[Form A, 6-[4-(1-cyclohexyl-1H-tetrazol-5-yl)butoxy]-3,4-dihydro-2(1H)-quinolinone]", "values": [{"measurement": "bioavailability", "setting": "[4]", "value": "low"}, {"measurement": "aqueous solubility", "setting": "[3]; Form A as prepared by the procedures of the '479 patent", "value": "low"}]}, {"compound": "O=C1CCc2cc(OCCCCc3nnnn3C3CCCCC3)ccc2N1", "note": "[Form C, 6-[4-(1-cyclohexyl-1H-tetrazol-5-yl)butoxy]-3,4-dihydro-2(1H)-quinolinone]", "values": [{"measurement": "solid state phase transformation temperature (to Form A)", "setting": "[2]; listed as Example 2A", "value": "approximately 147 °C"}]}]}
